Measured values from patent US4020111A, “Propynyloxy alkyl arene insecticides” (priority 1975, dated 1977).
“And” between values parts separate entries of the source, which are not always exact repeats. Equal entries are not always repeated.

Columns and labels:
[1] = tested on: mice; test: synergism of acute toxicity of Dimetilan, GS 13005, Secobarbital and Methadone (intraperitoneal); type: in vivo, Swiss albino white male mice; conditions: for number of mice dead: 48 hours, of eight mice
Method in brief: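 Male Swiss albino mice (5–6 weeks, 23–27 g), eight per dose; synergist in corn oil given i.p. 1 h before i.p. insecticide or drug (drugs in distilled water). Lethality recorded over at least 6 h; controls received corn oil plus agent alone.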

[2] = tested on: IN/WHO strain house flies; test: topical application test, percent kill after 24 hours, IN/WHO strain; type: in vivo, house fly (susceptible IN/WHO strain)
Method in brief: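 Susceptible female IN/WHO house flies, 3–5 days old, CO2-anesthetized, received synergist plus insecticide in acetone (1.0 μL) on the thorax; doses in μg/fly. Flies held 10 per dish, 3–5 dishes/treatment, with skim milk; mortality (percent kill) read at 24 h.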

[3] = tested on: Rutgers A strain house flies; test: topical application test, percent kill after 24 hours, Rutgers A strain; type: in vivo, house fly (resistant Rutgers A strain)
Protocol: (§1) In Table IX, and in the tables following it, the doses of topically applied insecticides and of synergists unless otherwise noted are expressed as micrograms per fly (μg/fly).
The synergistic effect of O-(2-propynyl) oximes with mobam was determined from topical application tests on susceptible, female, IN/WHO strain house flies and from tests on resistant, female, Rutgers A strain house flies. The synergist and insecticide were dissolved in ACS Grade acetone in such quantities that a 1.0μ liter volume applied to the thorax of 3-to-5 day old CO2 -anesthetized female adult house flies contained the desired dosage. After being treated, the flies were confined, 10 to a plaster petri dish, with 3-5 dishes/treatment, and held for 24-hr. observation of mortality. Reconstituted skim milk on cotton dental wicks was provided during the holding period. The percent kills after 24 hours are shown in Table X for the IN/WHO strain and Table XI for the Rutgers A strain.
The synergistic effect of benzyl 2-propynyl ethers with mobam was determined from topical application tests on IN/WHO and Rutgers A strain houseflies, following the procedure of Example 5. The percent kills after 24 hours are shown in Table XIV for the IN/WHO strain and in Table XV for the Rutgers A strain.
The synergistic effect with Diazinon of compounds I-B, I-D, I-F, I-G, I-H and I-I, identified in Tables I and Ia, was determined from topical application tests on IN/WHO strain houseflies and on Rutgers A strain houseflies by the procedure of Example 5. The percent kills after 24 hours are shown in Table XXV for the IN/WHO strain and Table XXVI for the Rutgers A strain.
(§2) The synergistic effect with GS 13005 of compounds I-A, I-B, I-D, I-E, I-F, I-G and I-I was determined from topical application tests to IN/WHO strain, Rutgers A strain and polyvalent CH strain houseflies using the procedures of Example 5. The percent kills of the IN/WHO strain flies after 24 hours are shown in Table XXVIII; of the Rutgers A strain, in Table XXIX; and of the polyvalent CH strain, in Table XXX. The doses of insecticide alone to the CH strain files caused 10-40% mortality.
(§3) The synergistic effect with Diazinon and GS 13005 of various of the benzyl 2-propynyl ethers identified in Tables II and IIa was determined by topical application tests on IN/WHO strain, and Rutgers A strain and polyvalent, resistant, CH strain houseflies using the procedures of Example 5. The percent kills after 24 hours of IN/WHO strain flies are shown in Table XXXI; of Rutgers A strain flies, in Table XXXII; and of CH strain flies, in Table XXXIII. The doses of insecticide alone to the CH strain flies caused 10-40% mortality.
The synergistic effect on IN/WHO strain flies and Rutgers A strain flies of compound IV-C with GS 13005 and with Diazinon was determined by the topical application procedure of Example 5. The percent kills of IN/WHO strain flies after 24 hours are shown in Tables XXXVI and XXXVII; the percent kills of Rutgers A strain flies are shown in Tables XXXVIII and XXXIX.

[4] = tested on: polyvalent resistant (CH strain) houseflies; test: whole plant or invertebrate; type: in vivo, housefly (CH strain); conditions: for percent kill after 24 hours: CH strain
Protocol: The effect of O-(2-propynyl) oximes with Dimetilan and with GS 13798 was obtained from tests on polyvalent resistant (CH strain) houseflies that had been chilled and to the dorsal region of which was applied an acetone solution of synergist and insecticide at a ratio of two to one. Duplicate tests were performed using 10 four to five-day old female houseflies per test. After dosage, the flies were put in a plastic petri dish with cotton soaked in a sugar-water solution. These doses of insecticide used without synergist caused 10-40% mortality.
as §1
The effect of compounds II-C, II-D and II-E with Dimetilan and GS 13798 was determined, following the procedure of Example 5, from tests on polyvalent resistant (CH strain) houseflies. These doses of insecticide used without synergist caused 10-40% mortality.
as §2, §3
The synergistic effect with pyrethrum of various synergist compounds was determined by topical application tests on polyvalent, resistant CH strain houseflies following the procedure of Example 5. Application of the insecticide alone caused 10-40% mortality.

[5] = tested on: German male cockroaches (Blatella Germanicus); test: topical application to thorax, 24 hour mortality of German male cockroaches; type: in vivo, German cockroach (Blatella Germanicus)
Protocol: The synergistic effect with mobam of synergist compounds I-B, II-H, II-K and IV-C is further illustrated by the 24 hour mortality data of German male cockroaches (Blatella Germanicus) shown in Table XXXX. The synergists and insecticide were diluted in acetone and applied in small droplets to the thorax of the insect. These doses of synergist alone gave zero percent insect mortality.
The synergistic effect with GS 13005 of compounds I-B, II-H, II-K, II-P, II-Q, II-R and IV-C is illustrated by the 24 hour mortality of German male cockroaches shown in Table XXXXI. These doses of synergist alone caused zero percent insect mortality.

[6] = tested on: houseflies; test: percent kill with Diazinon, Table XXVII (strain not given); type: in vivo, housefly; conditions: Diazinon 5 + synergist 10 μg/fly, 1440 min
[7] = tested on: Wilson strain house flies; type: in vivo, house fly (susceptible Wilson strain); conditions: for Contact Synergistic Ratio, Carbaryl (LC50 insecticide alone / LC50 with synergist): in vivo; for Contact Synergistic Ratio, Pyrolan (LC50 insecticide alone / LC50 with synergist): synergist to insecticide 5:1 by weight, 24 h
Method in brief: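 Flies held at room temperature in glass jars coated with acetone-deposited insecticide film, alone or with synergist at 5:1 synergist:insecticide by weight; 10% sugar supplied.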

[8] = tested on: mice; test: acute toxicity of Dimetilan alone and of synergist alone (intraperitoneal); type: in vivo, Swiss albino white male mice; conditions: synergist alone 1000 mg/kg ip, 72 hours, of eight mice
Protocol: To determine the acute toxicity of dimetilan alone, eight dosage levels of Dimetilan, ranging from 4 to 32 mg per kg wer applied to eight, Swiss, albino, white, male mice per dosage level. The mice weighed approximately 23 to 27 grams and were five to size weeks old. The Dimetilan was administered intraperitoneally in 0.1 ml of corn oil one hour after the administration of the same dose of corn oil alone.
To determine the acute toxicity of the synergist alone, various synergists were administered intraperitoneally at a dose of 1000 mg/kg to each of a group of eight mice. The number of animals dead at the end of 72 hours is reported in the left hand column of Table XXXXVI.

[9] = tested on: mice; test: extension of Secobarbital sleeping time by synergists; type: in vivo, Swiss albino white male mice; conditions: Secobarbital 37 mg/K; for Relative Sleeping Time: treated/control
Method in brief: (§4)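 Swiss albino male mice (~38 days, 25-30 g) given synergist at 74.0 or 110.0 mg/kg in corn oil 1 h before Secobarbital 37.0 mg/kg or Noludar 110.0 mg/kg in water. Sleeping time measured from drug dosing to righting-reflex recovery; relative sleeping time = treated ÷ drug-only control.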

[10] = tested on: mice; test: extension of Noludar sleeping time by synergists; type: in vivo, Swiss albino white male mice; conditions: Noludar 110 mg/K, synergist 110 mg/K; for Relative Sleeping Time: treated/control
Method in brief: as §4

[11] = Dimetilan 8 mg/kg + synergist 240 mg/kg ip
[12] = GS 13005 71 mg/kg + synergist 213 mg/kg
[13] = Methadone 32 mg/kg + synergist 215 mg/kg
[14] = Secobarbital 90 mg/kg + synergist 215 mg/kg
[15] = synergist alone at doses of Table XXXXI

SMILES | Contact Synergistic Ratio, Carbaryl (LC50 insecticide alone / LC50 with synergist) [7] | Contact Synergistic Ratio, Pyrolan (LC50 insecticide alone / LC50 with synergist) [7] | number of mice dead [1, 11] | mice lethality (number dead) [1, 12] | mice lethality (number dead) [1, 13] | mice lethality (number dead) [1, 14] | number of mice dead [8] | Mean Sleeping Time ([9]; synergist 74 mg/K) | Relative Sleeping Time ([9]; synergist 74 mg/K) | Mean Sleeping Time ([9]; synergist 110 mg/K) | Relative Sleeping Time ([9]; synergist 110 mg/K) | Mean Sleeping Time [10] | Relative Sleeping Time [10] | insect mortality, synergist alone [5, 15] | other results
COc1nn(CSP(=S)(OC)OC)c(=O)s1 [GS 13005, S-((2-methoxy-5-oxo-Δ^2-1,3,4-thiadiazolin-4-yl)methyl) O,O-dimethyl phosphorodithioate, reference compound] | – | – | – | – | – | – | – | – | – | – | – | – | – | – | mice lethality (number dead) ([1]; control: GS 13005 71 mg/kg in 0.1 ml corn oil): 5; percent kill after 24 hours ([2]; GS 13005 alone 0.05 μg/fly): 0%; percent kill after 24 hours ([2]; GS 13005 alone 0.10 μg/fly, 1440 min): 19% and 16% and 12%; percent kill after 24 hours ([3]; GS 13005 alone 1.0 μg/fly, 1440 min): 2%; mortality at 1 µg/fly ([4]; Musca domestica, topical, 24 h, read-out: mortality, insecticide alone): 10 to 40%; 24 hour mortality ([5]; GS 13005 alone, dose 0.08, 1440 min): 15% and 23% and 10%
C#CCON=Cc1ccc(OC)c(OC)c1 [I-A] | 200 | 30 | – | – | – | – | – | – | – | – | – | – | – | – | percent kill [6]: 45%; percent kill after 24 hours ([4]; Dimetilan 2 + synergist 4 μg/fly): 100%; percent kill after 24 hours ([4]; GS 13005 1 + synergist 2 μg/fly): 45%; percent kill after 24 hours ([4]; GS 13798 1 + synergist 2 μg/fly): 65%; percent kill after 24 hours ([4]; Pyrethrum 2 + synergist 4 μg/fly): 15%
C#CCOCc1c(Cl)cccc1Cl [II-H] | 300 | 40 | 6 | 7 | 4 | 0 | 0 | 44 min | 1.4 | 51 min | 2.1 | 68 min | 2.2 | zero | number of mice dead ([1]; Dimetilan 8 mg/kg + synergist 80 mg/kg ip): 0; insect mortality, synergist alone ([5]; synergist alone at doses of Table XXXX): zero
C#CCOCc1ccccc1[N+](=O)[O-] [II-P, 2-nitrobenzyl 2-propynyl ether] | – | – | 0 | 6 | 0 | 0 | 2 | – | – | 46 min | 1.0 | 44 min | 1.5 | zero | –
C#CCOCc1ccc([N+](=O)[O-])cc1 [II-Q, 4-nitrobenzyl 2-propynyl ether] | – | – | 1 | 6 | – | – | 7 | 30 min | 1.1 | 73 min | 1.6 | 41 min | 2.1 | zero | –
CNC(=O)Oc1cccc2sccc12 [Mobam, 4-benzo(b) thienyl-N-methylcarbamate, reference compound] | – | – | – | – | – | – | – | – | – | – | – | – | – | – | percent kill after 24 hours ([2]; Mobam alone 0.05 μg/fly): 0%; percent kill after 24 hours ([2]; Mobam alone 0.10 μg/fly): zero; percent kill after 24 hours ([2]; Mobam alone 0.10 μg/fly, 1440 min): 0%; percent mortality 24 hours ([2]; Mobam alone 0.13 μg/fly): 0%; percent kill after 24 hours ([2]; Mobam alone 0.20 μg/fly, 1440 min): 2%; percent mortality 24 hours ([2]; Mobam alone 0.50 μg/fly, 1440 min): 83%; percent mortality 24 hours ([2]; Mobam alone 1.0 μg/fly, 1440 min): 73% and 93%; change in lethality on doubling dose of mobam alone ([2]; mobam alone 0.05 to 0.10 mg/fly (so in the source)): no increase in lethality; percent kill after 24 hours ([3]; Mobam alone 0.15 μg/fly): 0%; percent kill after 24 hours ([3]; Mobam alone 0.30 μg/fly): 0%; percent kill after 24 hours ([3]; Mobam alone 0.40 μg/fly): 7%; percent kill after 24 hours ([3]; Mobam alone 0.60 μg/fly): 4%; 24 hour mortality ([5]; Mobam alone, dose 0.12): 10%; 24 hour mortality ([5]; Mobam alone, dose 0.16): 30%
